Measurements: US20250282770A1, “BIOLUMINESCENT PROBES TO TRACK STEM CELLS IN VIVO” (THE BOARD OF TRUSTEES OF THE UNIVERSITY OF ILLINOIS, priority 2024, published 2025)

What was measured:
rat liver microsomes = test: Stability of AlDeLuc to rat liver microsomes; type: in vitro ADME; details: 2 μM; RLM 0.25 to 5.0 ng/mL; NADPH; 37° C.
Experimental: Investigating the Stability of AlDeLuc to Rat Liver Microsomes. The stability of AlDeLuc (2 μM) in rat liver microsomes (RLM) was measured in a black 96-well plate and was monitored using the IVIS imaging system. To Eppendorf tubes containing potassium phosphate buffer (0.1 M, pH 7.4), RLM (0.25 ng/mL or 5 ng/mL), and AlDeLuc (2 μM) was added NADPH (50 μM in potassium phosphate buffer) and incubated at 37° C. for 15 minutes. In parallel, Eppendorf tubes with potassium phosphate buffer (0.1 M, pH 7.4), ALDH1A1 (0.4 μM), NAD^+ (1 mM), and AlDeLuc (2 μM, activated with acid) were warmed at 37° C. for 15 minutes. The solutions were transported to the laboratory housing the IVIS imaging system (˜10 minutes), transferred to a 96-well plate, and immediately administered ATP-MgSO4 (45 μL, prepared by mixing 17.78 mM ATP-Mg and 35.56 mM MgSO4 in a 1:1 ratio in PBS buffer) and luciferase (5 μL, 1 mg/mL in PBS containing 10% glycerol) to initiate bioluminescence production. Light was collected immediately after mixing, and the total luminescent counts were collected in each condition. The total volume of each well was 200 μL with 0.2% DMSO. All data reported as the mean±standard deviation (n=4).

ALDH1A2 = target: T1, ALDH1A2 (Homo sapiens, UniProt O94788); test: AlDeLuc isoform selectivity assay; type: biochemical; details: 2 μM, pre-activated with HCl, 60 min room temperature
T1 construct: inferred from Ni-NTA purification; made in house; host or cells: E. coli BL21(DE3)
T1 sequence (O94788 whole entry, canonical isoform): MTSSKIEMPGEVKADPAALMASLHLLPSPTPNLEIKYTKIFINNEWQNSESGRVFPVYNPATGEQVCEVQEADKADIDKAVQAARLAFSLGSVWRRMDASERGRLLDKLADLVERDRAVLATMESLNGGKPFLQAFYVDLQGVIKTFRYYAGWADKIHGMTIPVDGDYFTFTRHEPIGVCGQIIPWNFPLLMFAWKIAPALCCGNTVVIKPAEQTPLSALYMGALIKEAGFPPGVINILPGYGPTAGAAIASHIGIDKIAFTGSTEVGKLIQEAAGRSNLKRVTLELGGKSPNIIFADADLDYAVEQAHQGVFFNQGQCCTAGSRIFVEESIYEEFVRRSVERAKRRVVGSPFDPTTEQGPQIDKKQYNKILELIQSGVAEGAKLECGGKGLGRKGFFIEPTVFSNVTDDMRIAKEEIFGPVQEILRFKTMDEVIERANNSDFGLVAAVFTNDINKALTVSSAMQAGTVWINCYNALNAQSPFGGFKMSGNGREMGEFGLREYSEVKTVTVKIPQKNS
Experimental: (§1) Expression and Purification of ALDH Expression constructs for recombinant human ALDH1A1, ALDH1A2, ALDH1A3, and ALDH2, ALDH3A1, ALDH4A1, and ALDH5A1 were generously provided by Prof. Daria Mochly-Rosen (Stanford, Chemical and Systems Biology). E. coli BL21(DE3) cells with transformed with each of the above constructs. Colonies were selected from an agar plate containing […] ampicillin and grown overnight (37° C., 220 rpm) in LB media containing […] ampicillin. The overnight culture (10 mL) was inoculated into 1000 mL LB supplemented with […] ampicillin. When the O.D. reached ˜0.5, IPTG was added to a final concentration of 1 mM and incubated overnight (30° C., 200 rpm, 18 h). The cells were harvested via centrifugation (4° C., 4,000 rpm, 90 min) and the cell pellets were stored at −80° C. until purification.
(§2) ALDH Isoform Activity Determination. The activity of each isoform of ALDH was confirmed by monitoring the production of NADH at 340 nm when incubated with the most used substrate for that enzyme (i.e., benzaldehyde for ALDH3A1 and propionaldehyde for all other isoforms). Each isoform was diluted with 50 mM triethanolamine (TEA, pH 7.4) to a final concentration of 0.5 μM and placed in a 1 mL quartz cuvette. Prior to measurement, NAD^+ was added to a final concentration of 2.5 mM and the preferred substrate was added to a final concentration of 1 mM. Absorbance spectra was taken from 300 to 500 nm every 30 seconds for 15 minutes. Activity for each enzyme was calculated from the slope of absorbance increase at 340 nm over time.
(§3) AlDeLuc Isoform Selectivity Assay. Activation of AlDeLuc was assessed using the necessary amount of enzyme that gave the activity of 0.5 nmol of substrate turned over/minute. All enzymatic reactions were performed in 50 mM triethanolamine (TEA) buffer (pH 7.4) with 2.5 mM NAD^+. To prepare the probe solution, AlDeLuc was dissolved in DMSO and incubated with 1 M HCl. After an hour, this solution was neutralized with 1 M NaOH, and diluted with PBS. To a clear 24-well plate, TEA buffer, NAD^+, the ALDH isoform, and then AlDeLuc (2 μM) were added sequentially to a final volume of 1 mL. After an hour incubation at room temperature, ATP-MgSO4 (45 μL, prepared by mixing 17.78 mM ATP-Mg and 35.56 mM MgSO4 in a 1:1 ratio in PBS buffer) and luciferase (5 μL, 1 mg/mL in PBS containing 10% glycerol) were added to initiate bioluminescence production. The wells were immediately imaged using the IVIS imaging system in open mode. ROIs were drawn around each well and the signal intensity was quantified using the Living Image Analysis. The signal enhancement was normalized relative to the ALDH2 isoform.

ALDH1A3 = target: T2, ALDH1A3 (Homo sapiens, UniProt P47895); test: AlDeLuc isoform selectivity assay; type: biochemical; details: 2 μM, pre-activated with HCl, 60 min room temperature
T2 construct: inferred from Ni-NTA purification; made in house; host or cells: E. coli BL21(DE3)
T2 sequence (P47895 whole entry, canonical isoform): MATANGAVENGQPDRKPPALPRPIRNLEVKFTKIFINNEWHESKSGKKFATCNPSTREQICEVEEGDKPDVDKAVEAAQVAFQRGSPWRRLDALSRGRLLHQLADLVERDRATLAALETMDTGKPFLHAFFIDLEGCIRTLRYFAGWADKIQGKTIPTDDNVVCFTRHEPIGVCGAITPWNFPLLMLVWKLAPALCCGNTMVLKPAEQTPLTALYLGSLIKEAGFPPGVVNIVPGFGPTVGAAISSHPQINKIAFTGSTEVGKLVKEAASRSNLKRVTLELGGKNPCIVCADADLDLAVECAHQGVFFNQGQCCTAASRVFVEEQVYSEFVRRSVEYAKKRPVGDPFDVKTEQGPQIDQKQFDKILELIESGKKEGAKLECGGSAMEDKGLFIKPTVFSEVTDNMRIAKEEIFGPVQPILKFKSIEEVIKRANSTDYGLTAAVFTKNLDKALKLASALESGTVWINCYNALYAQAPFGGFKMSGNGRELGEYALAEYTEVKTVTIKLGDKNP
Experimental: as §1, §2, §3

ALDH4A1 = target: T3, ALDH4A1 (Homo sapiens, UniProt P30038); test: AlDeLuc isoform selectivity assay; type: biochemical; details: 2 μM, pre-activated with HCl, 60 min room temperature
T3 construct: inferred from Ni-NTA purification; made in house; host or cells: E. coli BL21(DE3)
T3 sequence (P30038 25-563): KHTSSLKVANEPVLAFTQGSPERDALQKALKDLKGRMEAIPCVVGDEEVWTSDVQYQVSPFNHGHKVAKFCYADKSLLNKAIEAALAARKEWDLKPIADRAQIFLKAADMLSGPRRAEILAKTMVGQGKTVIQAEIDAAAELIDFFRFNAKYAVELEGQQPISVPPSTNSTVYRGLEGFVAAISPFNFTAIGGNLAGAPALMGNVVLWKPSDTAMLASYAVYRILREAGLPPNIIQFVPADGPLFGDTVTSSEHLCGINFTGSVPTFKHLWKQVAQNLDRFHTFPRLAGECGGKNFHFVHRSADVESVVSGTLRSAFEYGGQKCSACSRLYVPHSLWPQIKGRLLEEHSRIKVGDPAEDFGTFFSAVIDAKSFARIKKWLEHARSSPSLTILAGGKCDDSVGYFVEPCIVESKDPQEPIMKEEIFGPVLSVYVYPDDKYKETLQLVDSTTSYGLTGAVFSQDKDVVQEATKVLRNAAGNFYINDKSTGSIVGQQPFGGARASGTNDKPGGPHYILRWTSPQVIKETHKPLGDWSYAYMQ
Experimental: as §1, §2, §3

ALDH2 = target: T4, ALDH2 (Homo sapiens, UniProt P05091); test: AlDeLuc isoform selectivity assay; type: biochemical; details: 2 μM, pre-activated with HCl, 60 min room temperature
T4 construct: inferred from Ni-NTA purification; made in house; host or cells: E. coli BL21(DE3)
T4 sequence (P05091 18-517): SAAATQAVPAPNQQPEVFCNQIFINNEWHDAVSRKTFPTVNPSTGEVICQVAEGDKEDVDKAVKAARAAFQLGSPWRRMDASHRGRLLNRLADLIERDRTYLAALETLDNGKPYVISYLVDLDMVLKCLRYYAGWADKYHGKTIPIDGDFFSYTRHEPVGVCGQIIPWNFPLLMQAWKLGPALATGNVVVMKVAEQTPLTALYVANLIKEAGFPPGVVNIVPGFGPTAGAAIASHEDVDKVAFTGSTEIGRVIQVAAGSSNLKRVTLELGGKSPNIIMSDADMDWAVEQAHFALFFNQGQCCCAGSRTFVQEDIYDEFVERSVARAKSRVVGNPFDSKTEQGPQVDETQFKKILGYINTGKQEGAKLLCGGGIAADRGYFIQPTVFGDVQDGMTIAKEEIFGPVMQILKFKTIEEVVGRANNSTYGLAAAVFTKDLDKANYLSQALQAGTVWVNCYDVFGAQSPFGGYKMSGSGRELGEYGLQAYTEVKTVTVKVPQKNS
Experimental: as §1, §2, §3

ALDH1A1 = target: T5, ALDH1A1 (Homo sapiens, UniProt P00352); test: AlDeLuc isoform selectivity assay; type: biochemical; details: 2 μM, pre-activated with HCl, 60 min room temperature
T5 construct: inferred from Ni-NTA purification; made in house; host or cells: E. coli BL21(DE3)
T5 sequence (P00352 1-501): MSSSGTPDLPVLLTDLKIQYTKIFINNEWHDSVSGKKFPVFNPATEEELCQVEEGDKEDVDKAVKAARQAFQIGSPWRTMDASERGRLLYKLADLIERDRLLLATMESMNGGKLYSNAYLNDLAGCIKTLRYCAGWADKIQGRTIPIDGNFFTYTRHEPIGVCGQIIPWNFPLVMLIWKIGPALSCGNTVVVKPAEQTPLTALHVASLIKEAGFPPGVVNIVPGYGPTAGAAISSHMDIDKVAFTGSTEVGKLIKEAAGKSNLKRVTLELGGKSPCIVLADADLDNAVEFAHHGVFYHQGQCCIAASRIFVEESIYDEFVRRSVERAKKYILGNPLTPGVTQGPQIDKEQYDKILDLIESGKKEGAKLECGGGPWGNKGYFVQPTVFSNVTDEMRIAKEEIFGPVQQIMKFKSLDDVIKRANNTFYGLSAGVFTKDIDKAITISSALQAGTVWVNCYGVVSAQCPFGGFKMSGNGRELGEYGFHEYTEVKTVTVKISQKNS
Experimental: as §1, §2, §3

ALDH5A1 = target: T6, ALDH5A1 (Homo sapiens, UniProt P51649); test: AlDeLuc isoform selectivity assay; type: biochemical; details: 2 μM, pre-activated with HCl, 60 min room temperature
T6 construct: inferred from Ni-NTA purification; made in house; host or cells: E. coli BL21(DE3)
T6 sequence (P51649 48-535): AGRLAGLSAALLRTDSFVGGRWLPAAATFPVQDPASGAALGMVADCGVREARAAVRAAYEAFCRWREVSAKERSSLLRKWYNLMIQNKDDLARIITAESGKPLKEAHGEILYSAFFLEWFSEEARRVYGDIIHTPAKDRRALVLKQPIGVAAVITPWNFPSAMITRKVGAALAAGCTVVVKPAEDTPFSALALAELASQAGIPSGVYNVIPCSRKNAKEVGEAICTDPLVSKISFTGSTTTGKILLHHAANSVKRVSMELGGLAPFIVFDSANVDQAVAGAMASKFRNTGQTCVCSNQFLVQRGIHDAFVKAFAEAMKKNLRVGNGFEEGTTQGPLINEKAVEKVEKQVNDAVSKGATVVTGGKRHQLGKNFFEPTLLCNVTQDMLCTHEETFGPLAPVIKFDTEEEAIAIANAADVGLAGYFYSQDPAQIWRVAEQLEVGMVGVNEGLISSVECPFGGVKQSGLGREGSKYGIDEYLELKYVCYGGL
Experimental: as §1, §2, §3

CCN(CC)c1ccc2nc(C3=N[C@@H](C(OC)OC)CS3)sc2c1 [AlDeLuc, (S)-2-(4-(dimethoxymethyl)-4,5-dihydrothiazol-2-yl)-N,N-diethylbenzo[d]thiazol-6-amine]
bioluminescence after incubation with rat liver microsomes (rat liver microsomes): negligible bioluminescence
bioluminescence (ALDH1A2): only treatment with ALDH1A1 and luciferase generated significant bioluminescence
bioluminescence (ALDH1A3): only treatment with ALDH1A1 and luciferase generated significant bioluminescence
bioluminescence (ALDH4A1): only treatment with ALDH1A1 and luciferase generated significant bioluminescence
bioluminescence (ALDH2): only treatment with ALDH1A1 and luciferase generated significant bioluminescence
bioluminescence (ALDH1A1): significant bioluminescence
bioluminescence (ALDH5A1): only treatment with ALDH1A1 and luciferase generated significant bioluminescence
